In paper PMC11859928, “Design, Synthesis, and Antiproliferative Activity of Novel Indole/1,2,4-Triazole Hybrids as Tubulin Polymerization Inhibitors” (Pharmaceuticals, 2025):

Experiments:
Test in all cases: NCI one-dose assay
Assay type in all cases: cell-based
OVCAR-8 = conditions: Homo sapiens, OVCAR-8, Ovarian cancer, read-out: Cell growth inhibition %
Procedure: (§1) The National Cancer Institute (NCI), Bethesda, USA, selected the final compounds 6a–j and 7a–j for in vitro anticancer screening. An initial in vitro single-dose anticancer experiment was performed with the entire NCI 60 cell lines derived from nine tumor subpanel cancer cell lines. The results for each compound were illustrated as a mean graph showing the percentage growth of treated cells compared to untreated control cells (see Supplementary Materials).
(§2) The NCI anticancer screening process has been thoroughly detailed. The Drug Evaluation Branch of the National Cancer Institute in Bethesda, […], USA, established the procedure and conducted the anticancer assay on 60 human tumor cell lines from nine neoplastic cancers.

MDA-MB-468 = conditions: Homo sapiens, MDA-MB-468, Breast cancer, read-out: Cell growth inhibition %
Procedure: as §1, §2

MDA-MB-231/ATCC = conditions: Homo sapiens, Breast cancer, read-out: Cell growth inhibition %
Procedure: as §1, §2

HCT-15 = conditions: Homo sapiens, HCT-15, Colon cancer, read-out: Cell growth inhibition %
Procedure: as §1, §2

SNB-75 = conditions: Homo sapiens, SNB-75, CNS cancer, read-out: Cell growth inhibition %
Procedure: as §1, §2

SK-MEL-5 = conditions: Homo sapiens, SK-MEL-5, Melanoma, read-out: Cell growth inhibition %
Procedure: as §1, §2

BT-549 = conditions: Homo sapiens, BT-549, Breast cancer, read-out: Cell growth inhibition %
Procedure: as §1, §2

NCI-H322M = conditions: Homo sapiens, Non-small cell lung cancer, read-out: Cell growth inhibition %
Procedure: as §1, §2

HL-60(TB) = conditions: Homo sapiens, Leukemia, read-out: Cell growth inhibition %
Procedure: as §1, §2

CAKI-1 = conditions: Homo sapiens, CAKI-1, Renal cancer, read-out: Cell growth inhibition %
Procedure: as §1, §2

KM12 = conditions: Homo sapiens, KM12, Colon cancer, read-out: Cell growth inhibition %
Procedure: as §1, §2

UACC-257 = conditions: Homo sapiens, UACC-257, Melanoma, read-out: Cell growth inhibition %
Procedure: as §1, §2

TK-10 = conditions: Homo sapiens, TK-10, Renal cancer, read-out: Cell growth inhibition %
Procedure: as §1, §2

SW-620 = conditions: Homo sapiens, SW-620, Colon cancer, read-out: Cell growth inhibition %
Procedure: as §1, §2

NCI-H460 = conditions: Homo sapiens, NCI-H460, Non-small cell lung cancer, read-out: Cell growth inhibition %
Procedure: as §1, §2

PC-3 = conditions: Homo sapiens, PC-3, Prostate cancer, read-out: Cell growth inhibition %
Procedure: as §1, §2

ACHN = conditions: Homo sapiens, Renal cancer, read-out: Cell growth inhibition %
Procedure: as §1, §2

HCT-116 = conditions: Homo sapiens, HCT-116, Colon cancer, read-out: Cell growth inhibition %
Procedure: as §1, §2

OVCAR-4 = conditions: Homo sapiens, OVCAR-4, Ovarian cancer, read-out: Cell growth inhibition %
Procedure: as §1, §2

HT29 = conditions: Homo sapiens, HT-29, HT29, Colon cancer, read-out: Cell growth inhibition %
Procedure: as §1, §2

DU-145 = conditions: Homo sapiens, DU-145, Prostate cancer, read-out: Cell growth inhibition %
Procedure: as §1, §2

NCI/ADR-RES = conditions: Homo sapiens, Ovarian cancer, read-out: Cell growth inhibition %
Procedure: as §1, §2

CCRF-CEM = conditions: Homo sapiens, Leukemia, read-out: Cell growth inhibition %
Procedure: as §1, §2

OVCAR-5 = conditions: Homo sapiens, OVCAR-5, Ovarian cancer, read-out: Cell growth inhibition %
Procedure: as §1, §2

COLO 205 = conditions: Homo sapiens, COLO 205, Colon cancer, read-out: Cell growth inhibition %
Procedure: as §1, §2

M14 = conditions: Homo sapiens, M14, Melanoma, read-out: Cell growth inhibition %
Procedure: as §1, §2

SK-OV-3 = conditions: Homo sapiens, SK-OV-3, Ovarian cancer, read-out: Cell growth inhibition %
Procedure: as §1, §2

HCC-2998 = conditions: Homo sapiens, HCC-2998, Colon cancer, read-out: Cell growth inhibition %
Procedure: as §1, §2

NCI-H23 = conditions: Homo sapiens, NCI-H23, Non-small cell lung cancer, read-out: Cell growth inhibition %
Procedure: as §1, §2

K-562 = conditions: Homo sapiens, K562, K-562, Leukemia, read-out: Cell growth inhibition %
Procedure: as §1, §2

UACC-62 = conditions: Homo sapiens, UACC-62, Melanoma, read-out: Cell growth inhibition %
Procedure: as §1, §2

SN12C = conditions: Homo sapiens, Renal cancer, read-out: Cell growth inhibition %
Procedure: as §1, §2

MOLT-4 = conditions: Homo sapiens, MOLT-4, Leukemia, read-out: Cell growth inhibition %
Procedure: as §1, §2

RPMI-8226 = conditions: Homo sapiens, RPMI-8226, Leukemia, read-out: Cell growth inhibition %
Procedure: as §1, §2

SK-MEL-2 = conditions: Homo sapiens, SK-MEL-2, Melanoma, read-out: Cell growth inhibition %
Procedure: as §1, §2

MALME-3M = conditions: Homo sapiens, Melanoma, read-out: Cell growth inhibition %
Procedure: as §1, §2

Compound | inhibition at 10 µM (OVCAR-8) | inhibition at 10 µM (MDA-MB-468) | inhibition at 10 µM (MDA-MB-231/ATCC) | inhibition at 10 µM (HCT-15) | inhibition at 10 µM (SNB-75) | inhibition at 10 µM (SK-MEL-5) | inhibition at 10 µM (BT-549) | inhibition at 10 µM (NCI-H322M) | inhibition at 10 µM (HL-60(TB)) | inhibition at 10 µM (CAKI-1) | inhibition at 10 µM (KM12) | inhibition at 10 µM (UACC-257) | inhibition at 10 µM (TK-10) | inhibition at 10 µM (SW-620) | inhibition at 10 µM (NCI-H460) | inhibition at 10 µM (PC-3) | inhibition at 10 µM (ACHN) | inhibition at 10 µM (HCT-116) | inhibition at 10 µM (OVCAR-4) | inhibition at 10 µM (HT29) | other results
C=CCn1c(SCC(=O)c2ccccc2)nnc1-c1c[nH]c2ccccc12 [Compound 6a, 2-((4-Allyl-5-(1H-indol-3-yl)-4H-1,2,4-triazol-3-yl)thio)-1-phenylethanone] | 4.58% | 12.3% | 11.2% | 4% | 3.62% | 3.38% | -9.39% | -1.89% | 4.39% | 16.9% | -11.8% | 2.08% | -43.9% | 3.89% | -6.84% | 10.9% | 6.19% | 2.55% | 2.53% | -11.8% | inhibition at 10 µM (DU-145): -9.05%; inhibition at 10 µM (NCI/ADR-RES): 2.62%; inhibition at 10 µM (CCRF-CEM): 8.76%; inhibition at 10 µM (OVCAR-5): -3.17%; inhibition at 10 µM (COLO 205): -22.1%; inhibition at 10 µM (M14): 2.35%; inhibition at 10 µM (SK-OV-3): -20.4%; inhibition at 10 µM (HCC-2998): -10.6%; inhibition at 10 µM (NCI-H23): 0.39%; inhibition at 10 µM (K-562): 7.37%; inhibition at 10 µM (UACC-62): 18.5%; inhibition at 10 µM (SN12C): 7.27%; inhibition at 10 µM (MOLT-4): 7.17%; inhibition at 10 µM (RPMI-8226): 13.4%; inhibition at 10 µM (SK-MEL-2): -4.98%; inhibition at 10 µM (MALME-3M): 13.4%
C=CCn1c(SCC(=O)c2ccc(OC)cc2)nnc1-c1c[nH]c2ccccc12 [Compound 6b, 2-((4-Allyl-5-(1H-indol-3-yl)-4H-1,2,4-triazol-3-yl)thio)-1-(4-methoxyphenyl) Ethenone] | 4.99% | 5.01% | 11.1% | 2.44% | -14.8% | 3.34% | -1.84% | 2.42% | 8.98% | 7.83% | -4.63% | -2.78% | -40.5% | 0.51% | -1.3% | 20.3% | 8.68% | 5.43% | -4.81% | -12.7% | inhibition at 10 µM (DU-145): -11.8%; inhibition at 10 µM (NCI/ADR-RES): -3.74%; inhibition at 10 µM (CCRF-CEM): 8.66%; inhibition at 10 µM (OVCAR-5): -2.88%; inhibition at 10 µM (COLO 205): 2.83%; inhibition at 10 µM (M14): -1.55%; inhibition at 10 µM (SK-OV-3): -30.5%; inhibition at 10 µM (HCC-2998): -3.48%; inhibition at 10 µM (NCI-H23): 5.52%; inhibition at 10 µM (K-562): 8.14%; inhibition at 10 µM (UACC-62): 15.6%; inhibition at 10 µM (SN12C): 3.73%; inhibition at 10 µM (MOLT-4): 6.64%; inhibition at 10 µM (RPMI-8226): 16.8%; inhibition at 10 µM (SK-MEL-2): -33.2%; inhibition at 10 µM (MALME-3M): 5.32%
